Assay results reported in patent US20110045101A1, “FUNGICIDAL SUBSTITUTED AZOLES” (E.I. Du Pont De Nemours and Company, priority 2009, published 2011).
Marks after values point to notes of the source that are not given here.

How the values were obtained:
Format in all cases: in vivo
Conditions in all cases: 100 = 100% disease control
Botrytis cinerea = test: Test C: tomato Botrytis on tomato seedlings, sprayed the day before inoculation, visual disease rating
In short: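 Spray to run-off on tomato seedlings; test conc. 200 ppm (≈500 g/ha), some entries 40 ppm. Formulation: acetone 3% of final vol., then acetone/water 50:50 + 250 ppm polyhydric alcohol ester surfactant.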

Septoria tritici = test: Test G: wheat leaf blotch on wheat seedlings, sprayed the day before inoculation, visual disease rating
In short: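 Wheat seedlings were sprayed to run-off with test suspension (acetone/water plus surfactant), generally 200 ppm (≈500 g/ha), or 40 ppm where marked. Septoria tritici spores were inoculated the next day; plants were held 48 h at 24°C in saturated atmosphere, then 19 days at 20°C before visual disease rating.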

Septoria nodorum = test: Test F: wheat glume blotch on wheat seedlings, sprayed the day before inoculation, visual disease rating
In short: (§1)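 Spray suspension: acetone 3% of final volume, then 50/50 acetone/water plus 250 ppm Trem® 014. Applied to run-off on seedlings at 200 ppm (≈500 g/ha); starred entries tested at 40 ppm.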

Alternaria solani = test: Test D: tomato early blight, sprayed the day before inoculation, visual disease rating
In short: as §1

[1] = system: Erysiphe graminis f. sp. tritici; test: Test J: wheat powdery mildew on wheat seedlings, sprayed the day before inoculation, visual disease rating
In short: as §1

[2] = system: Puccinia recondita f. sp. tritici; test: Test I: wheat leaf rust on wheat seedlings, sprayed the day before inoculation, visual disease rating
In short: as §1

[3] = 200 ppm, 0 = no control relative to controls

| Compound | Test C disease control rating (Botrytis cinerea; [3]) | Test G disease control rating (Septoria tritici; [3]) | Test F disease control rating (Septoria nodorum; [3]) | Test D disease control rating (Alternaria solani; [3]) | Test J disease control rating [1, 3] | Test I disease control rating [2, 3] | Test C disease control rating (Botrytis cinerea; 200 ppm, 0 = no control) | Test G disease control rating (Septoria tritici; 200 ppm, 0 = no control) | Test F disease control rating (Septoria nodorum; 200 ppm, 0 = no control) | Test D disease control rating (Alternaria solani; 200 ppm, 0 = no control) | Test J disease control rating ([1]; 200 ppm, 0 = no control) | Test I disease control rating ([2]; 200 ppm, 0 = no control) | other results |
| --- | --- | --- | --- | --- | --- | --- | --- | --- | --- | --- | --- | --- | --- |
| Cc1cc(-c2cnc(Cl)n2-c2ccc(Cl)cc2)sc1CCl [compound 452] | 55% | 86% | 0% | 0% | 76% | 86% | – | – | – | – | – | – | – |
| Cc1nc(Cl)c(-c2cc(F)ccc2F)n1-c1ccc(Cl)cc1 [compound 93] | 97% | 99% | 100% | 100% | 100% | 98% | – | – | – | – | – | – | – |
| CSc1ccc(F)c(-c2c(Cl)ncn2-c2ccc(Cl)cc2)c1F [compound 215] | – | – | – | – | – | – | 98% | 96% | 0% | 85% | 91% | 68% | – |
| Cc1ccc(-n2c(Br)nc(Cl)c2-c2c(F)ccc(F)c2Cl)cc1 [compound 197] | – | – | – | – | – | – | 99% | 93% | 0% | 99% | 100% | 100% | – |
| Cc1nc(Cl)c(-c2c(F)ccc(Br)c2F)n1-c1ccc(Cl)cc1 [compound 91] | 98% | 99% | 100% | 100% | 100% | 96% | – | – | – | – | – | – | – |
| Cc1ccc(-n2c(Cl)nc(Cl)c2-c2c(F)cccc2Cl)cc1 [compound 227] | – | – | – | – | – | – | 98% | 94% | 0% | 96% | 99% | 99% | – |
| COc1cc(F)c(-c2c(Cl)nc(C)n2-c2ccc(Cl)cc2)c(Cl)c1 [compound 172] | – | – | – | – | – | – | 99% | 98% | 100% | 99% | 99% | 99% | – |
| Cc1nc(Cl)c(-c2c(F)cccc2C(F)(F)F)n1-c1ccc(Cl)cc1 [compound 94] | 56% | 95% | 0% | 53% | 100% | 99% | – | – | – | – | – | – | – |
| Cc1ncn(-c2ccc(Cl)c(F)c2)c1-c1ccncc1 [compound 253] | – | – | – | – | – | – | 94% | 91% | 0% | 0% | 0% | 74% | – |
| COc1ccc(F)c(-c2c(Cl)ncn2-c2ccc(I)cc2)c1F [compound 448] | 97% | 98% | 89% | 100% | 98% | 95% | – | – | – | – | – | – | – |
| Cc1nn(C)c(-c2c(F)cc(F)cc2F)c1-c1cccc(F)c1 [compound 70] | 71% | 0% | 0% | 0% | 0% | 0% | – | – | – | – | – | – | – |
| Cc1ccc(-n2cnc(Cl)c2-c2c(F)cccc2F)cc1F [compound 161] | – | – | – | – | – | – | 99% | 1% | 0% | 71% | 100% | 80% | – |
| Cc1ccc(-n2c(Br)nc(Cl)c2-c2c(F)cccc2F)cc1F [compound 170] | – | – | – | – | – | – | 97% | 95% | 0% | 98% | 99% | 99% | – |
| Cc1nn(C)c(-c2c(Cl)cccc2Cl)c1-c1ccc(Cl)c(F)c1 [compound 89] | 0% | 3% | 0% | 0% | 98% | 85% | – | – | – | – | – | – | – |
| COc1ccc(F)c(-c2c(Cl)nc(Cl)n2-c2cccc(F)c2)c1F [compound 279] | – | – | – | – | – | – | 100% | 93% | 100% | 100% | 100% | 100% | – |
| Fc1cc(-n2c(Cl)nc(Cl)c2-c2c(F)ccc(F)c2Cl)ccc1Cl [compound 220] | – | – | – | – | – | – | 98% | 97% | 0% | 99% | 100% | 99% | – |
| N#Cc1cc(F)c(-c2c(Cl)ncn2-c2ccc(Cl)cc2)c(F)c1 [compound 193] | – | – | – | – | – | – | 99% | 98% | 0% | 100% | 98% | 97% | – |
| Cc1nc(Cl)c(-c2c(F)ccc(F)c2Cl)n1-c1ccc(Cl)cc1 [compound 80] | 90% | 98% | 100% | 100% | 100% | 100% | – | – | – | – | – | – | – |
| Cc1ccc(-n2c(Br)nc(Cl)c2-c2c(F)ccc(F)c2F)cc1C [compound 224] | – | – | – | – | – | – | 93% | 90% | 0% | 51% | 98% | 80% | – |
| Fc1cc(-n2c(Br)nc(Cl)c2-c2c(F)ccc(F)c2Cl)ccc1Cl [compound 219] | – | – | – | – | – | – | 98% | 96% | 51% | 97% | 99% | 99% | – |
| Fc1ccccc1-n1c(Br)nc(Cl)c1-c1c(F)cccc1F [compound 58] | 98% | 79% | 51% | 100% | 100% | 99% | – | – | – | – | – | – | – |
| COc1cc(Cl)cc(F)c1-c1c(Cl)nc(Br)n1-c1ccc(Cl)cc1 [compound 140] | 0% | 93% | 0% | 0% | 39% | 55% | – | – | – | – | – | – | – |
| Fc1cc(-n2c(Cl)nc(Cl)c2-c2cccnc2Cl)ccc1Cl [compound 458] | 96% | 92% | 0% | 16% | 89% | 95% | – | – | – | – | – | – | – |
| Cc1ccc(-n2c(Br)nc(Cl)c2-c2ccc(F)cc2Cl)cc1 [compound 184] | – | – | – | – | – | – | 99% | 97% | 0% | 100% | 100% | 100% | – |
| Cc1nc(Cl)c(-c2c(F)cccc2F)n1Cc1cccc(Cl)c1 [compound 126] | 97% | 96% | 69% | 99% | 99% | 99% | – | – | – | – | – | – | – |
| Cc1ccc(-n2c(Cl)nc(Cl)c2-c2c(F)cc(F)cc2F)cc1 [compound 154] | – | – | – | – | – | – | 99% | 93% | 0% | 100% | 99% | 86% | – |
| Cc1nn(C)c(-c2c(Cl)cccc2Cl)c1-c1ccc(Cl)cc1 [compound 87] | 0% | 84% | 0% | 0% | 99% | 27% | – | – | – | – | – | – | – |
| COc1cc(F)c(-c2c(C)ncn2-c2ccc(Cl)nc2)c(F)c1 [compound 254] | – | – | – | – | – | – | 100% | 95% | 0% | 100% | 98% | 99% | – |
| Cc1nc(Cl)c(-c2ccc(F)cc2Cl)n1-c1ccc(Cl)cc1 [compound 49] | 98% | 94% | 100% | 100% | 99% | 99% | – | – | – | – | – | – | – |
| Fc1cc(F)c(-n2cnc(Cl)c2-c2ccc(Cl)cc2)c(F)c1 [compound 98] | – | – | – | – | – | – | – | – | – | – | – | – | Test C disease control rating (Botrytis cinerea; 40 ppm (marked *)): 0* %; Test G disease control rating (Septoria tritici; 40 ppm (marked *)): 27* %; Test F disease control rating (Septoria nodorum; 40 ppm (marked *)): 0* %; Test D disease control rating (Alternaria solani; 40 ppm (marked *)): 0* %; Test J disease control rating ([1]; 40 ppm (marked *)): 0* %; Test I disease control rating ([2]; 40 ppm (marked *)): 0* % |
